Laboratory results reported in the METLIN SMRT retention time set (Domingo-Almenara et al. 2019).

Assay: gradient 5% acetonitrile 3 min, to 50% in 2 min, to 85% in 15 min, held 3 min, 100 µL/min
Conditions: column: Zorbax Extend-C18 2.1 x 50 mm; eluents: water / acetonitrile, 0.1% formic acid
Procedure, shortened: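 Data were gathered over 3 months by HPLC coupled to a quadrupole time-of-flight mass spectrometer, operated in positive and negative ionization mode. Mixtures of ~100 pure standards ran on a Zorbax Extend-C18 column (2.1 × 50 mm, 1.8 μm) at 100 μL/min, with water and acetonitrile each containing 0.1% formic acid and dead and dwell volumes of 40 μL and 900 μL. Retention time was read from adduct peaks picked by computer and checked manually.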

SMILES	RP-LC retention time
Cc1ccc(NS(=O)(=O)c2cc(-c3[nH]ncc3C(=O)N(C)C)oc2C)cc1F	713 s
O=C(O)c1cncc(NS(=O)(=O)c2ccc3c(c2)OCCO3)c1	611 s
COc1cccc(NC(=O)Nc2ccc3nc(N4CCN(C)CC4)cc(C)c3c2)c1	587 s
CCOc1ccc2nc(NC(=O)c3ccc(N4CCCC4)nn3)sc2c1	830 s
CCS(=O)(=O)NCc1ccc2c(c1)CCN2C(=O)c1ccccc1	657 s
CCc1nc2cc(-c3noc(-c4cccc(N(C)C)c4)n3)ccc2o1	1230 s
Cc1ccc2c(=O)c3c([nH]c2c1C)CCN(CC(=O)Nc1cc(F)cc(F)c1)C3	638 s
CCc1nnc2ccc(-c3noc(-c4c(F)cccc4F)n3)cn12	845 s
COc1ccc(-n2ccnc(NC(=O)Nc3ccccc3)c2=O)cc1OC	829 s
Cn1c([N+](=O)[O-])cnc1N1CCN(c2nncs2)C1=O	689 s
COc1ccccc1CCC(=O)Nc1ccc2c(c1)Sc1ncccc1C(=O)N2C	822 s
Cc1cccc(N2CC(C(=O)N3CCCCCC3)CC2=O)c1 (stereo unspecified)	802 s
COc1cc(NC(=O)N2CCN(c3ccc(=O)n(-c4ccc(C)c(C)c4)n3)CC2)cc(OC)c1OC	775 s
O=C(Nc1cccc(F)c1)C1CCN(S(=O)(=O)c2cc(-c3noc(C4CC4)n3)cs2)CC1	1040 s
CCOC(=O)c1sc(NC(=O)c2cn(C)nc2OC)nc1C	767 s
Cc1ccccc1N1CCN(S(=O)(=O)c2cc3n(c2)CCCNC3=O)CC1	788 s
CCC(=O)Nc1ccc(CCc2nc3ccc(C(=O)NC4CCCCCC4)cc3[nH]2)cc1	671 s
O=C(CN1C(=O)COc2cc(Cl)ccc21)NC1CC1	714 s
CCC(CC)C(=O)Nc1nc(-c2ccc3c(c2)N(CC)C(=O)CO3)c(C)s1	1270 s
Cc1ccc(NC(=O)Cc2csc3nc(-c4ccc(C)c(C)c4)cn23)cc1	884 s
COc1ccccc1N1CCN(Cc2nc(-c3ccc(N4CCOCC4)nc3)no2)CC1	694 s
COc1ccc(CNC(=O)C2(C)CCCN(S(=O)(=O)c3ccc(C)cc3)C2)cc1 (stereo unspecified)	946 s

SMILES	RP-LC retention time
Cn1cc(-c2nc(C(=O)NCc3ccc(F)c(Cl)c3)cs2)c2cccnc21	975 s
COc1cc(OC)c(NC(=O)Nc2c(-c3ccccc3)nc3ccccn23)cc1Cl	682 s
Cc1ccccc1-c1noc(CN2C(=O)COc3ccccc32)n1	1040 s
CCCCCn1c(=O)c2ccccc2n(Cc2nc(-c3ccccc3Cl)no2)c1=O	1260 s
Cc1cc(-c2c(C)sc(C)c2S(=O)(=O)N2CCN(c3ccccc3F)CC2)n[nH]1	971 s
O=c1n(Cc2ccc(Cl)cc2)nc2c(S(=O)(=O)N3CCCCC3)cccn12	919 s
COc1ccc(S(=O)(=O)CCC(=O)N2CCCC2c2nc(-c3ccc(C)cc3)no2)cc1 (stereo unspecified)	951 s
O=C(Cn1nc(N2CCOCC2)c2ccccc2c1=O)Nc1ccc(F)c(F)c1	796 s
COc1ccccc1N1CCN(c2nc3ccc(C)cc3cc2-c2noc(C)n2)CC1	732 s
C=CCN1CC(=O)N2Cc3[nH]c4ccccc4c3C[C@H]2C1=O	708 s
Cc1ccc2c(Nc3ccc(S(N)(=O)=O)cc3)c(C(=O)OC(C)C)cnc2n1	840 s
O=C(NCC1CCN(C(=O)Nc2ccc(F)cc2)CC1)Oc1ccccc1	772 s
CCN1CCCn2nc(C3CCN(S(=O)(=O)c4ccc(C)c(C)c4)CC3)cc2C1=O	891 s
CCOC(=O)c1cccc(N2C=C(C(=O)OC)S(=O)(=O)c3cc(F)ccc32)c1	932 s
CCOc1ccc(-c2noc(C3CC(=O)N(c4ccc(C)cc4)C3)n2)cc1 (stereo unspecified)	1080 s
Cc1ccc(-c2noc(Cn3c(=O)n(CC(C)C)c(=O)c4ccccc43)n2)cc1	1240 s
Cc1ccc(N2CC(c3noc(-c4cccc(OC(F)(F)F)c4)n3)CC2=O)cc1 (stereo unspecified)	1160 s
O=C(Nc1cccc(-c2cn3cccnc3n2)c1)c1ccc(F)c(F)c1	706 s
CCc1ccc(C2=C(C)C(N3CCC(C(=O)NC)CC3)=NS2(=O)=O)cc1	738 s
O=C(NCCc1csc(-c2cccs2)n1)C1CCN(C(=O)Cc2ccc(F)cc2)CC1	774 s
O=C(CSc1ccc(N2CCCC2)nn1)Nc1ccc(Cl)cc1	647 s
CC1CCN(C(=O)C2c3ccccc3CCN2C(=O)C(C)C)CC1 (stereo unspecified)	883 s

SMILES	RP-LC retention time
CN(CC1CCOC1)S(=O)(=O)Cc1ccccc1F (stereo unspecified)	755 s
Cc1cccc(-n2nnc(C(=O)O)c2-c2cccnc2)c1	650 s
CCCNc1cc(N2CCCC(CCC(=O)NCCOC)C2)ncn1 (stereo unspecified)	592 s
O=C(NCc1csc(C2CCN(C(=O)c3cc(F)ccc3Cl)CC2)n1)C1CCC1	713 s
O=C1CC(c2noc(-c3ccc(F)cc3)n2)CN1c1ccc(F)cc1 (stereo unspecified)	961 s
CC1=C(C(=O)N2CCOCC2)C(c2ccc(Br)cc2)C2=C(CC(C)(C)CC2=O)N1 (stereo unspecified)	723 s
CC(C)c1ccc(CNC(=O)Cc2nnc(-c3ccc4ncccc4c3)o2)cc1	811 s
COc1ccc(-c2noc(CS(=O)(=O)c3ccc(Cl)cc3)n2)cc1OC	1030 s
O=C(C1CC(=O)N(c2n[nH]c3cccc(F)c23)C1)N1CCN(c2ccccc2)CC1 (stereo unspecified)	718 s
Cc1ccc(Nc2c(-c3cccc([N+](=O)[O-])c3)nc3ccc(Cl)cn23)cc1	1100 s
CC(C)n1cnc2c(-c3ccccc3)cn(CC(=O)NCc3ccco3)c2c1=O	592 s
CCc1cccc(NC(=O)Cc2nnc(-c3cnccn3)o2)c1	736 s
COc1cc([C@@H]2c3cc4c(cc3[C@H](O)[C@@H](CO)[C@@H]2C(=O)NC(C)C)OCO4)cc(OC)c1OC	660 s
COc1ccc(C2CC(=O)c3c(C)nc(N4CCN(CCO)CC4)nc3C2)cc1 (stereo unspecified)	638 s
O=C(O)c1cnc(NCc2ccccn2)nc1-c1cccc(Cl)c1	613 s
CNC(=O)NC1CCN(c2ccc(C)c(C)c2)C1=O (stereo unspecified)	654 s
COc1ccc(CNC(=O)Nc2cc3c(cc2N2CCCC2)n(C)c(=O)n3C)cc1	750 s
COc1ccc(NC(=O)N2CCC(n3c(-c4ccc(OC)cc4)nc4cccnc43)C2)cc1 (stereo unspecified)	709 s
Cc1cccc(OCc2nc(C)c(C(=O)N3CCC(C(N)=O)CC3)s2)c1	962 s
CCC(=O)N1CCc2cc(C(=O)N3CCOCC3)ccc21	637 s
O=C(NCC(c1ccsc1)N1CCc2ccccc2C1)C(=O)Nc1ccon1 (stereo unspecified)	572 s
O=C(NCCn1cc(SCC(=O)N2CCOCC2)c2ccccc21)c1ccc(F)cc1	733 s
